Assays:
[1] = target: T1, HCV NS3/4A protease complex, BMS strain (UniProt P27958, species not given/STRAIN_BMS); assay: FRET peptide assay to monitor HCV NS3/4A proteolytic activity (BMS strain); type: biochemical, Hepatitis C virus (genotype 1a); settings: NS3/4A BMS strain; read-out: IC50 Range
T1 construct: said of H77 and J4L6S; fused on or other part: A three-lysine solubilising tail at the C-terminus of NS4A and a His tag (pET21b, Ni-NTA purification)
Source text: HCV NS3 protease complexes, derived from the BMS strain, H77 strain or J4L6S strain, were generated, as described below. These purified recombinant proteins were generated for use in a homogeneous assay (see below) to provide an indication of how effective compounds of the present disclosure would be in inhibiting HCV NS3 proteolytic activity.
Serum from an HCV-infected patient was obtained from Dr. T. Wright, San Francisco Hospital. An engineered full-length cDNA (compliment deoxyribonucleic acid) template of the HCV genome (BMS strain) was constructed from DNA fragments obtained by reverse transcription-PCR (RT-PCR) of serum RNA (ribonucleic acid) and using primers selected on the basis of homology between other genotype 1a strains. From the determination of the entire genome sequence, a genotype 1a was assigned to the HCV isolate according to the classification of Simmonds et al. (See P Simmonds, K A Rose, S Graham, S W Chan, F McOmish, B C Dow, E A Follett, P L Yap and H Marsden, J. Clin. Microbiol., 31(6), 1493-1503 (1993)). […] The infectious clones, H77 (1a genotype) and J4L6S (1b genotype) were obtained from R. Purcell (NIH) and the sequences are published in Genbank (AAB67036, see Yanagi, M., Purcell, R. H., Emerson, S. U. and Bukh, J. Proc. Natl. Acad. Sci. U.S.A. 94(16), 8738-8743 (1997); AF054247, see Yanagi, M., St Claire, M., Shapiro, M., Emerson, S. U., Purcell, R. H. and Bukh, J, Virology 244 (1), 161-172. (1998)).
The H77 and J4L6S strains were used for production of recombinant NS3/4A protease complexes. DNA encoding the recombinant HCV NS3/4A protease complex (amino acids 1027 to 1711) for these strains were manipulated as described by P. Gallinari et al. (see Gallinari P, Paolini C, Brennan D, Nardi C, Steinkuhler C, De Francesco R. Biochemistry. 38(17):5620-32, (1999)). Briefly, a three-lysine solubilizing tail was added at the 3′-end of the NS4A coding region. The cysteine in the P1 position of the NS4A-NS4B cleavage site (amino acid 1711) was changed to a glycine to avoid the proteolytic cleavage of the lysine tag. Furthermore, a cysteine to serine mutation was introduced by PCR at amino acid position 1454 to prevent the autolytic cleavage in the NS3 helicase domain. The variant DNA fragment was cloned in the pET21b bacterial expression vector (Novagen) and the NS3/4A complex was expressed in Escherichia coli strain BL21 (DE3) (Invitrogen) following the protocol described by P. Gallinari et al. (see Gallinari P, Brennan D, Nardi C, Brunetti M, Tomei L, Steinkuhler C, De Francesco R., J Virol. 72(8):6758-69 (1998)) with modifications. Briefly, the NS3/4A protease complex expression was induced with 0.5 mM Isopropyl β-D-1-thiogalactopyranoside (IPTG) for 22 hours (h) at 20° C. A typical fermentation (1 Liter (L)) yielded approximately 10 grams (g) of wet cell paste. The cells were resuspended in lysis buffer (10 mL/g) consisting of 25 mM N-(2-Hydroxyethyl)Piperazine-N′-(2-Ethane Sulfonic acid) (HEPES), pH 7.5, 20% glycerol, 500 mM Sodium Chloride (NaCl), 0.5% Triton X-100, 1 microgram/milliliter (“μg/mL”) lysozyme, 5 mM Magnesium Chloride (MgCl2), 1 μg/ml Dnasel, 5 mM β-Mercaptoethanol (βME), Protease inhibitor-Ethylenediamine Tetraacetic acid (EDTA) free (Roche), homogenized and incubated for 20 minutes (min) at 4° C. The homogenate was sonicated and clarified by ultra-centrifugation at 235000 g for 1 h at 4° C. Imidazole was added to the supernatant to a final concentration of 15 mM and the pH adjusted to 8.0. The crude protein extract was loaded on a Nickel-Nitrilotriacetic acid (Ni-NTA) column pre-equilibrated with buffer B (25 mM HEPES, pH 8.0, 20% glycerol, 500 mM NaCl, 0.5% Triton X-100, 15 mM imidazole, 5 mM βME). The sample was loaded at a flow rate of 1 mL/min. The column was washed with 15 column volumes of buffer C (same as buffer B except with 0.2% Triton X-100). The protein was eluted with 5 column volumes of buffer D (same as buffer C except with 200 mM Imidazole). […]

[2] = tested on: HCV replicon in HUH-7 cells; assay: HCV replicon FRET assay; type: cell-based, Hepatitis C virus (strain 1b); settings: Hepatitis C virus, Huh-7; HCV replicon, for compounds tested; read-out: EC50 Range
Source text: An HCV replicon whole cell system was established as described by Lohmann V, Komer F, Koch J, Herian U, Theilmann L, Bartenschlager R., Science 285(5424):110-3 (1999). This system enabled us to evaluate the effects of our HCV Protease compounds on HCV RNA replication. Briefly, using the HCV strain 1b sequence described in the Lohmann paper (Assession number: AJ238799), an HCV cDNA was synthesized by Operon Technologies, Inc. (Alameda, Calif.), and the full-length replicon was then assembled in plasmid pGem9zf(+) (Promega, Madison, Wis.) using standard molecular biology techniques. The replicon consists of (i) the HCV 5′ UTR fused to the first 12 amino acids of the capsid protein, (ii) the neomycin phosphotransferase gene (neo), (iii) the IRES from encephalomyocarditis virus (EMCV), and (iv) HCV NS3 to NS5B genes and the HCV 3′ UTR. Plasmid DNAs were linearized with Scal and RNA transcripts were synthesized in vitro using the T7 MegaScript transcription kit (Ambion, Austin, Tex.) according to manufacturer's directions. In vitro transcripts of the cDNA were transfected into the human hepatoma cell line, HUH-7. […] Resulting cell lines were characterized for positive and negative strand RNA production and protein production over time.
The HCV replicon FRET assay was developed to monitor the inhibitory effects of compounds described in the disclosure on HCV viral replication. HUH-7 cells, constitutively expressing the HCV replicon, were grown in Dulbecco's Modified Eagle Media (DMEM) (Gibco-BRL) containing 10% Fetal calf serum (FCS) (Sigma) and 1 mg/ml G418 (Gibco-BRL). Cells were seeded the night before (1.5×10^4 cells/well) in 96-well tissue-culture sterile plates. Compound and no compound controls were prepared in DMEM containing 4% FCS, 1:100 Penicillin/Streptomysin (Gibco-BRL), 1:100 L-glutamine and 5% DMSO in the dilution plate (0.5% DMSO final concentration in the assay). Compound/DMSO mixes were added to the cells and incubated for 4 days at 37° C. After 4 days, cells were first assessed for cytotoxicity using alamar Blue (Trek Diagnotstic Systems) for a CC50 reading. The toxicity of compound (CC50) was determined by adding 1/10th volume of alamar Blue to the media incubating the cells. After 4 hours, the fluorescence signal from each well was read, with an excitation wavelength at 530 nm and an emission wavelength of 580 nm, using the Cytofluor Series 4000 (Perspective Biosystems). Plates were then rinsed thoroughly with Phosphate-Buffered Saline (PBS) (3 times 150 μl). The cells were lysed with 25 μl of a lysis assay reagent containing an HCV protease substrate (5× cell Luciferase cell culture lysis reagent (Promega #E153A) diluted to 1× with distilled water, NaCl added to 150 mM final, the FRET peptide substrate (as described for the enzyme assay above) diluted to 10 μM final from a 2 mM stock in 100% DMSO. […]. The plate was then placed into the Cytofluor 4000 instrument which had been set to 340 nm excitation/490 nm emission, automatic mode for 21 cycles and the plate read in a kinetic mode. EC50 determinations were carried out as described for the IC50 determinations.

T1 sequence (P27958 1027-1657, change not shown, one chain of several): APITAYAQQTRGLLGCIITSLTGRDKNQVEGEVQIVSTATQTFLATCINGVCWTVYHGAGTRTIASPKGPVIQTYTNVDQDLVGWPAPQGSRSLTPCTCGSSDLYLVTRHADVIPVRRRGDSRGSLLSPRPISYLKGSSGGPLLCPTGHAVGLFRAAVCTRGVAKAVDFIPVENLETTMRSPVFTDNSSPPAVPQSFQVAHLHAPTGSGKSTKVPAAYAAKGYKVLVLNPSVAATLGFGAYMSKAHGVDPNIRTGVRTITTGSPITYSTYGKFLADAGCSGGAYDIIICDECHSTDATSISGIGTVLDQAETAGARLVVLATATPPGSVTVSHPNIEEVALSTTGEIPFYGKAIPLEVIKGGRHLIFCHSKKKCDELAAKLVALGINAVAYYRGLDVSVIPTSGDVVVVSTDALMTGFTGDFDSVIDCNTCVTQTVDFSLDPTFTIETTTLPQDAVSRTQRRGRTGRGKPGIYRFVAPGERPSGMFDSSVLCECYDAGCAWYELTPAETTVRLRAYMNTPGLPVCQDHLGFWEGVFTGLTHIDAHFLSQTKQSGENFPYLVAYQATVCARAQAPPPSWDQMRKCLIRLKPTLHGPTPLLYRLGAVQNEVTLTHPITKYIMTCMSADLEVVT

Row | Compound | melting point | IC50 [1] | EC50 [2]
1 | CC(C)(C)OC(=O)N[C@H]1COCCC/C=C\[C@@H]2C[C@@]2(C(=O)NS(=O)(=O)C2CC2)NC(=O)[C@@H]2C[C@@H](OC(=O)c3cccc(Oc4ccccc4)c3)CN2C1=O [Compound 13, 18-(3-phenoxybenzoyloxy)-14-tert-butoxycarbonylamino-4-cyclopropylsulfonylaminocarbonyl-2,15-dioxo-3,16-diaza-12-oxatricyclo-[14.3.0.0^4,6]-nonadec-7-ene] | 123 to 125 °C | < 100 nM | 100 to 1000 nM
2 | CC(C)(C)OC(=O)N[C@H]1COCCC/C=C\[C@@H]2C[C@@]2(C(=O)NS(=O)(=O)C2CC2)NC(=O)[C@@H]2C[C@@H](OC(=O)c3ccc(Oc4ccccc4)cc3)CN2C1=O [Compound 14, 18-(4-phenoxybenzoyloxy)-14-tert-butoxycarbonylamino-4-cyclopropylsulfonylaminocarbonyl-2,15-dioxo-3,16-diaza-12-oxatricyclo-[14.3.0.0^4,6]-nonadec-7-ene] | 207 to 209 °C | 100 to 1000 nM | 100 to 1000 nM
3 | CC(C)(C)OC(=O)N[C@H]1CCCCC/C=C\[C@@H]2C[C@@]2(C(=O)NS(=O)(=O)C2CC2)NC(=O)[C@@H]2C[C@@H](OC(=O)c3ccccc3)CN2C1=O [Compound 15, 18-benzoyloxy-14-tert-butoxycarbonylamino-4-cyclopropylsulfonylaminocarbonyl-2,15-dioxo-3,16-diazatricyclo-[14.3.0.0^4,6]-nonadec-7-ene] | 140 to 142 °C | < 100 nM | < 100 nM
4 | CC(C)(C)OC(=O)N[C@H]1CCCCC/C=C\[C@@H]2C[C@@]2(C(=O)NS(=O)(=O)C2CC2)NC(=O)[C@@H]2C[C@@H](OC(=O)c3ccc4c(c3)OCO4)CN2C1=O [Compound 16, 18-(3,4-methylenedioxybenzoyloxy)-14-tert-butoxycarbonylamino-4-cyclopropylsulfonylaminocarbonyl-2,15-dioxo-3,16-diazatricyclo-[14.3.0.0^4,6]-nonadec-7-ene] | 153 to 155 °C | < 100 nM | < 100 nM
5 | CC(C)(C)OC(=O)N[C@H]1CCCCC/C=C\[C@@H]2C[C@@]2(C(=O)NS(=O)(=O)C2CC2)NC(=O)[C@@H]2C[C@@H](OC(=O)c3cccc(OC(F)(F)F)c3)CN2C1=O [Compound 17, 18-[(3-trifluoromethoxy)benzoyloxy]-14-tert-butoxycarbonylamino-4-cyclopropylsulfonylaminocarbonyl-2,15-dioxo-3,16-diazatricyclo-[14.3.0.0^4,6]-nonadec-7-ene] | 132 to 134 °C | < 100 nM | < 100 nM
6 | CC(C)(C)OC(=O)N[C@H]1CCCCC/C=C\[C@@H]2C[C@@]2(C(=O)NS(=O)(=O)C2CC2)NC(=O)[C@@H]2C[C@@H](OC(=O)c3ccc4ccccc4c3)CN2C1=O [Compound 18, 18-(2-naphthoyloxy)-14-tert-butoxycarbonylamino-4-cyclopropylsulfonylaminocarbonyl-2,15-dioxo-3,16-diazatricyclo-[14.3.0.0^4,6]-nonadec-7-ene] | 156 to 158 °C | < 100 nM | < 100 nM
7 | CC(C)(C)OC(=O)N[C@H]1CCCCC/C=C\[C@@H]2C[C@@]2(C(=O)NS(=O)(=O)C2CC2)NC(=O)[C@@H]2C[C@@H](OC(=O)c3ccc(-c4ccccc4)cc3)CN2C1=O [Compound 19, 18-(4-biphenylcarbonyloxy)-14-tert-butoxycarbonylamino-4-cyclopropylsulfonylaminocarbonyl-2,15-dioxo-3,16-diazatricyclo-[14.3.0.0^4,6]-nonadec-7-ene] | 162 to 164 °C | < 100 nM | < 100 nM
8 | COc1ccc(C(=O)O[C@@H]2C[C@H]3C(=O)N[C@]4(C(=O)NS(=O)(=O)C5CC5)C[C@H]4/C=C\CCCCC[C@H](NC(=O)OC(C)(C)C)C(=O)N3C2)cc1 [Compound 20, 18-(4-methoxybenzoyloxy)-14-tert-butoxycarbonylamino-4-cyclopropylsulfonylaminocarbonyl-2,15-dioxo-3,16-diazatricyclo-[14.3.0.0^4,6]-nonadec-7-ene] | 151 to 153 °C | < 100 nM | < 100 nM
9 | CC(C)(C)OC(=O)N[C@H]1CCCCC/C=C\[C@@H]2C[C@@]2(C(=O)NS(=O)(=O)C2CC2)NC(=O)[C@@H]2C[C@@H](OC(=O)c3ccc(Cl)cc3)CN2C1=O [Compound 21, 18-(4-chlorobenzoyloxy)-14-tert-butoxycarbonylamino-4-cyclopropylsulfonylaminocarbonyl-2,15-dioxo-3,16-diazatricyclo-[14.3.0.0^4,6]-nonadec-7-ene] | 143 to 145 °C | < 100 nM | < 100 nM

Reference: US7772183B2 (Bristol-Myers Squibb Company, priority 2005, dated 2010)
